Assay results: patent US8927583B2, “Pesticidal composition comprising a 2-pyrdilmethylbenzamide derivative and an insecticide compound” (Bayer Cropscience AG, priority 2006, dated 2015)

Columns and labels:
Format in all cases: in vivo
Spodoptera frugiperda = Spodoptera frugiperda test (cabbage leaf dip, larvae mortality); conditions: cabbage leaves; for Efficacy in % after 6 d: mortality after 6 d; for Efficacy in % after 4 d: mortality after 4 d
Procedure: (§1) To produce a suitable preparation of active compound, 1 part by weight of active compound is mixed with the stated amount of solvent and emulsifier, and the concentrate is diluted with emulsifier-containing water to the desired concentration.
Cabbage leaves (Brassica oleracea) are treated by being dipped into the preparation of the active compound of the desired concentration and are infested with larvae of the fall army worm (Spodoptera frugiperda) as long as the leaves are still moist.
(§2) After the specified period of time, the mortality in % is determined. 100% means that all the caterpillars have been killed; 0% means that none of the caterpillars have been killed.

Spodoptera exigua = Spodoptera exigua test (cabbage leaf dip, larvae mortality); conditions: 500 ppm, mortality after 3 d, cabbage leaves
Procedure: as §1
Cabbage leaves (Brassica oleracea) are treated by being dipped into the preparation of the active compound of the desired concentration and are infested with larvae of the beet army worm (Spodoptera exigua) as long as the leaves are still moist.
as §2

Plutella xylostella = Plutella xylostella test (cabbage leaf dip, larvae mortality); conditions: mortality after 3 d, cabbage leaves
Procedure: To produce a suitable preparation of active compound, 1 part by weight of active compound is mixed with the stated amount of solvent and emulsifier, and the concentrate is diluted with emulsifier-containing water to the desired concentration. Cabbage leaves (Brassica oleracea) are treated by being dipped into the preparation of the active compound of the desired concentration and are infested with larvae of the diamond back moth (Plutella xylostella) as long as the leaves are still moist. After the specified period of time, the mortality in % is determined. 100% means that all the caterpillars have been killed; 0% means that none of the caterpillars have been killed.

CN1COCN(Cc2cnc(Cl)s2)/C1=N\[N+](=O)[O-] [Thiamethoxam]
Efficacy in % after 6 d (Spodoptera frugiperda; 100 ppm): 0%

O=C(NCc1ncc(C(F)(F)F)cc1Cl)c1c(Cl)cccc1Cl [Fluopicolide, 2,6-dichloro-N-{[3-chloro-5-(trifluoromethyl)-2-pyridinyl]methyl}-benzamide]
Efficacy in % after 3 d (Spodoptera exigua): 0%
Efficacy in % after 3 d (Plutella xylostella; 200 ppm): 0%
Efficacy in % after 6 d (Spodoptera frugiperda; 200 ppm): 0%
Efficacy in % after 4 d (Spodoptera frugiperda; 500 ppm): 0%

N#C/N=C1\SCCN1Cc1ccc(Cl)nc1 [Thiacloprid]
Efficacy in % after 4 d (Spodoptera frugiperda; 20 ppm): 25%

O=[N+]([O-])NC1=NCCN1Cc1ccc(Cl)nc1 [Imidacloprid]
Efficacy in % after 3 d (Spodoptera exigua): 40%

CN/C(=N\[N+](=O)[O-])NCc1cnc(Cl)s1 [Clothianidin]
Efficacy in % after 3 d (Plutella xylostella; 4 ppm): 0%
